From PubChem BioAssay (NCI)
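Values below derive from 48-hour exposures of cells grown in 96-well plates, with endpoints linearly interpolated between the two concentrations bracketing the appropriate inhibition level. GI50 is the concentration that inhibits growth by half. TGI marks complete inhibition of growth.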

What was measured:
Assay in all cases: NCI-60 cell line screen, 48 h
CAKI-1 renal = test system: CAKI-1 renal
M14 melanoma = test system: M14 melanoma
KM12 colon = test system: KM12 colon
SR leukemia = test system: SR leukemia
EKVX NSCLC = test system: EKVX NSCLC
HS 578T breast = test system: HS 578T breast
HOP-62 NSCLC = test system: HOP-62 NSCLC
HCT-116 colon = test system: HCT-116 colon
NCI-H522 lung = test system: NCI-H522 lung
PC-3 prostate = test system: PC-3 prostate
HCT-15 colon = test system: HCT-15 colon
HL-60(TB) leukemia = test system: HL-60(TB) leukemia
786-0 renal = test system: 786-0 renal
SK-OV-3 ovarian = test system: SK-OV-3 ovarian
LOX IMVI melanoma = test system: LOX IMVI melanoma
COLO 205 colon = test system: COLO 205 colon
OVCAR-8 ovarian = test system: OVCAR-8 ovarian
IGROV1 ovarian = test system: IGROV1 ovarian
A549 NSCLC = test system: A549 NSCLC
MOLT-4 leukemia = test system: MOLT-4 leukemia
OVCAR-5 ovarian = test system: OVCAR-5 ovarian
ACHN renal = test system: ACHN renal
RPMI-8226 leukemia = test system: RPMI-8226 leukemia
SK-MEL-28 melanoma = test system: SK-MEL-28 melanoma
NCI/ADR-RES ovarian = test system: NCI/ADR-RES ovarian
SF-539 CNS = test system: SF-539 CNS
UO-31 renal = test system: UO-31 renal
OVCAR-3 ovarian = test system: OVCAR-3 ovarian
UACC-257 melanoma = test system: UACC-257 melanoma
MCF7 breast = test system: MCF7 breast
SF-295 CNS = test system: SF-295 CNS
SK-MEL-5 melanoma = test system: SK-MEL-5 melanoma
RXF 393 renal = test system: RXF 393 renal
MDA-MB-435 = test system: MDA-MB-435
SF-268 CNS = test system: SF-268 CNS
T-47D breast = test system: T-47D breast
A498 renal = test system: A498 renal
DU-145 prostate = test system: DU-145 prostate
CCRF-CEM leukemia = test system: CCRF-CEM leukemia
SNB-75 CNS = test system: SNB-75 CNS
MALME-3M melanoma = test system: MALME-3M melanoma
BT-549 breast = test system: BT-549 breast
U251 CNS = test system: U251 CNS
SK-MEL-2 melanoma = test system: SK-MEL-2 melanoma
NCI-H226 lung = test system: NCI-H226 lung
UACC-62 melanoma = test system: UACC-62 melanoma
SW-620 colon = test system: SW-620 colon
OVCAR-4 ovarian = test system: OVCAR-4 ovarian
K-562 leukemia = test system: K-562 leukemia
NCI-H23 lung = test system: NCI-H23 lung
SNB-19 CNS = test system: SNB-19 CNS
SN12C renal = test system: SN12C renal
HOP-92 NSCLC = test system: HOP-92 NSCLC
HT29 colon = test system: HT29 colon
MDA-MB-231 breast = test system: MDA-MB-231 breast
HCC-2998 colon = test system: HCC-2998 colon
TK-10 renal = test system: TK-10 renal
NCI-H460 lung = test system: NCI-H460 lung

## CCOC(=O)/C(=C\c1ccc2ccccc2c1)P(=O)(OCC)OCC
CAKI-1 renal
  GI50: 3.06 µM
  TGI: 12 µM
M14 melanoma
  GI50: 2.18 µM
  TGI: 5.59 µM
KM12 colon
  GI50: 3.08 µM
  TGI: 10.9 µM
SR leukemia
  GI50: 1.69 µM
  TGI: 8.19 µM
EKVX NSCLC
  GI50: 4.28 µM
  TGI: 16 µM
HS 578T breast
  GI50: 7.17 µM
  TGI: 75.8 µM
HOP-62 NSCLC
  GI50: 2.61 µM
  TGI: 7.24 µM
HCT-116 colon
  GI50: 2.22 µM
  TGI: 5.08 µM
NCI-H522 lung
  GI50: 1.52 µM
  TGI: 3.35 µM
PC-3 prostate
  GI50: 2.84 µM
  TGI: 6.81 µM
HCT-15 colon
  GI50: 1.7 µM
  TGI: 4.45 µM
HL-60(TB) leukemia
  GI50: 2.15 µM
  TGI: 5.16 µM
786-0 renal
  GI50: 2.26 µM
  TGI: 5.61 µM
SK-OV-3 ovarian
  GI50: 8.84 µM
  TGI: 20.9 µM
LOX IMVI melanoma
  GI50: 1.58 µM
  TGI: 3.08 µM
COLO 205 colon
  GI50: 2.26 µM
  TGI: 4.89 µM
OVCAR-8 ovarian
  GI50: 3.26 µM
  TGI: 13.2 µM
IGROV1 ovarian
  GI50: 3 µM
  TGI: 8.94 µM
A549 NSCLC
  GI50: 3.08 µM
  TGI: 11.6 µM
MOLT-4 leukemia
  GI50: 2.16 µM
  TGI: 6.25 µM
OVCAR-5 ovarian
  GI50: 3.95 µM
  TGI: 13.9 µM
ACHN renal
  GI50: 2.31 µM
  TGI: 6.3 µM
RPMI-8226 leukemia
  GI50: 2.27 µM
  TGI: 6.54 µM
SK-MEL-28 melanoma
  GI50: 2.95 µM
  TGI: 8.06 µM
NCI/ADR-RES ovarian
  GI50: 3.15 µM
  TGI: 11.2 µM
SF-539 CNS
  GI50: 2.29 µM
  TGI: 5.17 µM
UO-31 renal
  GI50: 1.72 µM
  TGI: 4.4 µM
OVCAR-3 ovarian
  GI50: 1.95 µM
  TGI: 4.07 µM
UACC-257 melanoma
  GI50: 2.59 µM
  TGI: 7.14 µM
MCF7 breast
  GI50: 2.14 µM
  TGI: 7.12 µM
SF-295 CNS
  GI50: 4.76 µM
  TGI: 16.2 µM
SK-MEL-5 melanoma
  GI50: 2.55 µM
  TGI: 6.5 µM
RXF 393 renal
  GI50: 1.82 µM
  TGI: 3.46 µM
MDA-MB-435
  GI50: 2.92 µM
  TGI: 13.3 µM
SF-268 CNS
  GI50: 3.28 µM
  TGI: 14.3 µM
T-47D breast
  GI50: 2.55 µM
  TGI: 9.09 µM
A498 renal
  GI50: 3.73 µM
  TGI: 10.9 µM
DU-145 prostate
  GI50: 2.63 µM
  TGI: 9.32 µM
CCRF-CEM leukemia
  GI50: 1.89 µM
  TGI: 6.51 µM
SNB-75 CNS
  GI50: 2.57 µM
  TGI: 14.8 µM
MALME-3M melanoma
  GI50: 2.52 µM
  TGI: 7.95 µM
BT-549 breast
  GI50: 2.3 µM
  TGI: 5.88 µM
U251 CNS
  GI50: 2.64 µM
  TGI: 7.86 µM
SK-MEL-2 melanoma
  GI50: 2.16 µM
  TGI: 5.22 µM
NCI-H226 lung
  GI50: 2.39 µM
  TGI: 5.88 µM
UACC-62 melanoma
  GI50: 2.33 µM
  TGI: 8.53 µM
SW-620 colon
  GI50: 2.81 µM
  TGI: 10.4 µM
OVCAR-4 ovarian
  GI50: 4.16 µM
  TGI: 20.1 µM
K-562 leukemia
  GI50: 2.73 µM
  TGI: 50.8 µM
NCI-H23 lung
  GI50: 1.95 µM
  TGI: 4.78 µM
SNB-19 CNS
  GI50: 4.45 µM
  TGI: 18.6 µM
SN12C renal
  GI50: 2.85 µM
  TGI: 8.89 µM
HOP-92 NSCLC
  GI50: 2.44 µM
  TGI: 5.31 µM
HT29 colon
  GI50: 2.8 µM
  TGI: 8.18 µM
MDA-MB-231 breast
  GI50: 3.57 µM
  TGI: 13.4 µM
HCC-2998 colon
  GI50: 1.96 µM
  TGI: 3.43 µM
TK-10 renal
  GI50: 2.85 µM
  TGI: 8.97 µM
NCI-H460 lung
  GI50: 2.71 µM
  TGI: 9.2 µM
